Assay results from US20200405696A1, “INHIBITORS OF INDOLEAMINE 2,3-DIOXYGENASE AND/OR TRYPTOPHAN 2,3-DIOXYGENASE” (IDORSIA PHARMACEUTICALS LTD, priority 2018, published 2020).

Tests used:
[1] = biological target: T1, Recombinant human TDO comprising amino acids 19-407 (Homo sapiens, UniProt P48775); assay: TDO2 enzymatic assay (NFK quantified by LCMS); type: biochemical; conditions: 15 nM enzyme, 200 μM L-tryptophan, pH7, 30 minutes pre-incubation at RT; mean values when measured multiple times; read-out: hTDO activity (IC50 in nM)
T1 construct: Recombinant human TDO comprising amino acids 19-407 with a N-terminal hexahistidine tag; hexahistidine (His6) (N); made in house; host or cells: E. coli
Procedure, shortened: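 NFK formed over 30 min at RT from 200 μM L-tryptophan was measured by LCMS, normalized to d5-tryptophan, after compound (0.5 nM–10 μM, duplicates, 0.6% DMSO) was preincubated 30 min with 15 nM recombinant His-tagged TDO 19-407 in phosphate buffer pH 7. IC50 from four-parameter logistic fit; repeats averaged.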

[2] = biological target: T2, Recombinant full-length human IDO1 (Homo sapiens, UniProt P14902); assay: IDO1 enzymatic assay (NFK quantified by LCMS); type: biochemical; conditions: 2 nM enzyme, 5 μM L-tryptophan, pH6.5, 30 minutes pre-incubation at RT; mean values when measured multiple times; read-out: hIDO activity (IC50 in nM)
T2 construct: Recombinant full-length human IDO1 with a N-terminal hexahistidine tag; hexahistidine (His6) (N); made in house; host or cells: E. coli
Procedure, shortened: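 His-tagged human IDO1 (2 nM) in pH 6.5 phosphate buffer with ascorbate, methylene blue and catalase was preincubated with compound (10 μM–0.5 nM, 0.6% DMSO) for 30 min at RT. The reaction then ran with 5 μM L-Trp for 30 min. NFK was measured by LCMS against a d5-Trp standard, and IC50 was obtained by four-parameter fit.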

T2 sequence (P14902 whole entry): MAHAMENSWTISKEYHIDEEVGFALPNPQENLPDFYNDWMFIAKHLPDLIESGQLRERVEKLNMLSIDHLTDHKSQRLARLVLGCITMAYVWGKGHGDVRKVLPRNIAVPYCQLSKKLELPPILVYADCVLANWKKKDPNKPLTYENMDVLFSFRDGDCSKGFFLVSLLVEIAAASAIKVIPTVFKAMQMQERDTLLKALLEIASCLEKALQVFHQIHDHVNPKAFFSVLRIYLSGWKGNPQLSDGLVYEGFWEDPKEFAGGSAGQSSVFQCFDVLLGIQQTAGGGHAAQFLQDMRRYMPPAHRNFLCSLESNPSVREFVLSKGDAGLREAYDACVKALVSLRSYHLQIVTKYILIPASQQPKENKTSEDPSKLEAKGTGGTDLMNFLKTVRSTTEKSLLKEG
T1 sequence (P48775 19-406 limits assumed): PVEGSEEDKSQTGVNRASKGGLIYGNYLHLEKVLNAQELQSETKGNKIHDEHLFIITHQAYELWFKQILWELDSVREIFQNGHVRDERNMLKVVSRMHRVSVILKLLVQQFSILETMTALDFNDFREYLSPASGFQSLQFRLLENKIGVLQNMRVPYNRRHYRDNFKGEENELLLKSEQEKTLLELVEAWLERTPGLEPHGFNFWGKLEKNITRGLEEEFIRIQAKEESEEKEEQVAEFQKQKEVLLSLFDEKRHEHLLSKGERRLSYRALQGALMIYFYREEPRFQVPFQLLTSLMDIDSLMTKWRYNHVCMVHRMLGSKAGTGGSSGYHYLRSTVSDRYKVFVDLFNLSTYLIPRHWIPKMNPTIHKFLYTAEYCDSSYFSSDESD

## OC(c1nnc(-c2ccccc2)s1)c1c(C2CC2)sc2cncn12 (racemic) [Example 175, rac-(2-Cyclopropyl-imidazo[5,1-b]thiazol-3-yl)-(5-phenyl-[1,3,4]thiadiazol-2-yl)-methanol]
[1]
  IC50: > 10200 nM
[2]
  IC50: 122 nM

## N#Cc1cccc(-c2ccc(C(O)c3c(C4CC4)sc4cncn34)s2)c1 (racemic) [Example 159, rac-3-{5-[(2-Cyclopropyl-imidazo[5,1-b]thiazol-3-yl)-hydroxy-methyl]-thiophen-2-yl}-benzonitrile]
[1]
  IC50: 8310 nM
[2]
  IC50: 238 nM

## OC(c1cn(-c2cn[nH]c2)nn1)c1c(C2CC2)sc2cncn12 (racemic) [Example 41, rac-(2-Cyclopropyl-imidazo[5,1-b]thiazol-3-yl)-[1-(1H-pyrazol-4-yl)-1H-[1,2,3]triazol-4-yl]-methanol]
[1]
  IC50: > 10200 nM
[2]
  IC50: 305 nM

## Oc1ccc(-n2cc(C(O)c3c(C4CC4)sc4cncn34)nn2)c(C(F)(F)F)c1 (racemic) [Example 214, rac-4-{4-[(2-Cyclopropyl-imidazo[5,1-b]thiazol-3-yl)-hydroxy-methyl]-[1,2,3]triazol-1-yl}-3-trifluoromethyl-phenol]
[1]
  IC50: 8890 nM
[2]
  IC50: 127 nM

## OC(c1cn(-c2ccc(OCC3COC3)cc2)nn1)c1c(C2CC2)sc2cncn12 (racemic) [Example 88, rac-(2-Cyclopropyl-imidazo[5,1-b]thiazol-3-yl)-{1-[4-(oxetan-3-ylmethoxy)-phenyl]-1H-[1,2,3]triazol-4-yl}-methanol]
[1]
  IC50: > 10200 nM
[2]
  IC50: 12.6 nM

## COc1ccc(-n2cc(C(O)c3c(-c4ccc(F)cc4)sc4cncn34)nn2)cc1 (racemic) [Example 286, rac-[2-(4-Fluoro-phenyl)-imidazo[5,1-b]thiazol-3-yl]-[1-(4-methoxy-phenyl)-1H-[1,2,3]triazol-4-yl]-methanol]
[1]
  IC50: > 10200 nM
[2]
  IC50: 704 nM

## COc1ncc(-n2cc(C(O)c3c(C4CC4)sc4cncn34)nn2)cn1 (racemic) [Example 67, rac-(2-Cyclopropyl-imidazo[5,1-b]thiazol-3-yl)-[1-(2-methoxy-pyrimidin-5-yl)-1H-[1,2,3]triazol-4-yl]-methanol]
[1]
  IC50: 9160 nM
[2]
  IC50: 50.2 nM

## Cc1sc2cncn2c1C(O)c1cnc(-c2ccccc2)s1 (racemic) [Example 155, rac-(2-Methyl-imidazo[5,1-b]thiazol-3-yl)-(2-phenyl-thiazol-5-yl)-methanol]
[1]
  IC50: > 10200 nM
[2]
  IC50: 734 nM

## COc1cc(-n2cc(C(O)c3c(C4CC4)sc4cncn34)nn2)c(OC)nn1 (racemic) [Example 86, rac-(2-Cyclopropyl-imidazo[5,1-b]thiazol-3-yl)-[1-(3,6-dimethoxy-pyridazin-4-yl)-1H-[1,2,3]triazol-4-yl]-methanol]
[1]
  IC50: > 10200 nM
[2]
  IC50: 23.1 nM

## COc1ccc(-n2nnc(C(O)c3c(C4CC4)sc4cncn34)c2F)cc1 (racemic) [Example 336, rac-(2-Cyclopropyl-imidazo[5,1-b]thiazol-3-yl)-[5-fluoro-1-(4-methoxy-phenyl)-1H-[1,2,3]triazol-4-yl]-methanol]
[1]
  IC50: > 10200 nM
[2]
  IC50: 32.7 nM

## OC(c1cn(-c2ccc(OCc3ccccn3)cc2)nn1)c1c(C2CC2)sc2cncn12 (racemic) [Example 203, rac-(2-Cyclopropyl-imidazo[5,1-b]thiazol-3-yl)-{1-[4-(pyridin-2-ylmethoxy)-phenyl]-1H-[1,2,3]triazol-4-yl}-methanol]
[1]
  IC50: > 10200 nM
[2]
  IC50: 1350 nM

## CCc1sc2cncn2c1C(O)c1cn(-c2ccc(NC(=O)OC(C)(C)C)cc2F)nn1 (racemic) [Example 245, rac-(4-{4-[(2-Ethyl-imidazo[5,1-b]thiazol-3-yl)-hydroxy-methyl]-[1,2,3]triazol-1-yl}-3-fluoro-phenyl)-carbamic Acid Tert-Butyl Ester]
[1]
  IC50: 6810 nM
[2]
  IC50: 40.8 nM

## N#Cc1ccc(-n2cc(C(O)c3c(C4CC4)sc4cncn34)nn2)cc1 (racemic) [Example 11, rac-4-{4-[(2-Cyclopropyl-imidazo[5,1-b]thiazol-3-yl)-hydroxy-methyl]-[1,2,3]triazol-1-yl}-benzonitrile]
[1]
  IC50: > 10200 nM
[2]
  IC50: 39.6 nM

## CC(C)(O)CCOc1ccc(-n2cc([C@H](O)c3c(-c4ccccc4)sc4cncn34)nn2)cc1Cl [Example 268a, 4-(2-Chloro-4-{4-[(R)-hydroxy-(2-phenyl-imidazo[5,1-b]thiazol-3-yl)-methyl]-[1,2,3]triazol-1-yl}-phenoxy)-2-methyl-butan-2-ol]
[1]
  IC50: 10000 nM
[2]
  IC50: 123 nM

## OC(c1cn(-c2cnc(OC3CCC3)nc2)nn1)c1c(C2CC2)sc2cncn12 (racemic) [Example 83, rac-[1-(2-Cyclobutoxy-pyrimidin-5-yl)-1H-[1,2,3]triazol-4-yl]-(2-cyclopropyl-imidazo[5,1-b]thiazol-3-yl)-methanol]
[1]
  IC50: > 10200 nM
[2]
  IC50: 10.9 nM

## CCc1sc2cncn2c1C(O)c1cn(-c2ccc(OCCCO)c(Cl)c2)nn1 (racemic) [Example 320, rac-3-(2-Chloro-4-{4-[(2-ethyl-imidazo[5,1-b]thiazol-3-yl)-hydroxy-methyl]-[1,2,3]triazol-1-yl}-phenoxy)-propan-1-ol]
[1]
  IC50: 7780 nM
[2]
  IC50: 2.1 nM

## C=CCNC(=O)c1ccc(-n2cc(C(O)c3c(C4CC4)sc4cncn34)nn2)cc1 (racemic) [Example 193, rac-N-Allyl-4-{4-[(2-cyclopropyl-imidazo[5,1-b]thiazol-3-yl)-hydroxy-methyl]-[1,2,3]triazol-1-yl}-benzamide]
[1]
  IC50: > 10200 nM
[2]
  IC50: 9.02 nM

## OCCCOc1ccc(-n2cc([C@H](O)c3c(C4CC4)sc4cncn34)nn2)cc1 [Example 137a, 3-(4-{4-[(R)-(2-Cyclopropyl-imidazo[5,1-b]thiazol-3-yl)-hydroxy-methyl]-[1,2,3]triazol-1-yl}-phenoxy)-propan-1-ol]
[1]
  IC50: > 10200 nM
[2]
  IC50: 4.09 nM

## COC(=O)c1cccc(Cn2cc(C(O)c3c(C4CC4)sc4cncn34)nn2)c1 (racemic) [Example 294, rac-3-{4-[(2-Cyclopropyl-imidazo[5,1-b]thiazol-3-yl)-hydroxy-methyl]-[1,2,3]triazol-1-ylmethyl}-benzoic acid methyl ester]
[1]
  IC50: > 10200 nM
[2]
  IC50: 35.8 nM

## CCc1c(C(O)c2c(C3CC3)sc3cncn23)nnn1-c1ccc(OC)cc1 (racemic) [Example 279, rac-(2-Cyclopropyl-imidazo[5,1-b]thiazol-3-yl)-[5-ethyl-1-(4-methoxy-phenyl)-1H-[1,2,3]triazol-4-yl]-methanol]
[1]
  IC50: > 10200 nM
[2]
  IC50: 13.6 nM

## CCc1sc2cncn2c1C(O)c1cn(-c2cncc3ccccc23)nn1 (racemic) [Example 52, rac-(2-Ethyl-imidazo[5,1-b]thiazol-3-yl)-(1-isoquinolin-4-yl-1H-[1,2,3]triazol-4-yl)-methanol]
[1]
  IC50: 5060 nM
[2]
  IC50: 41.8 nM

## OCCOc1ccc(-n2cc(C(O)c3c(C4CC4)sc4cncn34)nn2)cc1 (racemic) [Example 136, rac-2-(4-{4-[(2-Cyclopropyl-imidazo[5,1-b]thiazol-3-yl)-hydroxy-methyl]-[1,2,3]triazol-1-yl}-phenoxy)-ethanol]
[1]
  IC50: > 10200 nM
[2]
  IC50: 10.8 nM
